Entries after “also recorded” stand apart in the source; their conditions may differ.
Tests used:
control HEK293 cells = test: HTRF IP1 assay in control HEK293 cells; assay type: cell-based; details: IP assay
Excerpt: Human and rat Mas receptors were either transiently or stably expressed in HEK293 cells. For transient transfections, human or rat Mas in pHM6 vector were transfected into HEK293 cells using Lipofectamine® (Invitrogen #18324-012). HEK293 cells transfected with empty pHM6 vector were used as a control. For generation of stable cell lines, cDNA expression plasmids encoding human or rat Mas genes and the neo^r gene were transfected into HEK293 cells (ATCC# CRL-1573) using Lipofectamine® (Invitrogen) according to the manufacturer's instructions. Stable receptor expressing pools were then generated over 3 weeks by standard techniques in the presence of 500 μg/mL Geneticin® (Gibco). Individual receptor stable pools were dilution cloned using standard techniques and clones were comparatively evaluated in inositol phosphate accumulation assays. Preferred clones were banked and cultured as needed. HEK293 cells were used as controls. The 384 well IP-One HTRF® Assay (Cisbio #62P1APEJ) was performed as described by the manufacturer's protocol. Cells were plated in at 100,000 cells per well in 15 μL DMEM (Gibco #11960) and incubated in a CO2 incubator at 37° C. for 2 h. […] IP1 levels in each well were calculated according to the standard curves on each plate. […]

[1] = system: isolated perfused rat hearts; test: Ex vivo coronary flow, Langendorff perfused isolated rat hearts; details: AR234960 1 μM
Experimental: Coronary flow was measured in male Mas^−/− and Mas^+/+ mice, and in male Sprague-Dawley rats using Langendorff perfused isolated hearts. Freshly isolated hearts were placed on a Langendorff apparatus (Harvard Apparatus) and perfused at a constant pressure of 80 mmHg with a modified Krebs-Henseleit buffer solution (Sigma K3753) and aerated with 95% oxygen and 5% carbon dioxide, pH 7.35-7.4. The temperature was maintained at 37° C. by surrounding the heart with a water-heated glassware chamber. Coronary flow was measured using a flow measurement system (Harvard Apparatus) which included the transit time flow meter and a flow probe built into an adaptor block located at the perfusate inflow port. Data were recorded continuously using an ISOHEART data acquisition system (Harvard Apparatus). After a 20-min equilibration period, Mas compounds were added to the perfusion buffer reservoir at the desired concentration (agonist AR234960 at 1 μM, or inverse agonist AR244555 at 5 μM) and coronary flow was recorded for 10 min
To determine the role of the Mas-Gq-PLC pathway in regulating coronary flow, the Mas inverse agonist AR244555 (5 μM) or the PLC inhibitor U-73122 (0.5 μM) was added to the perfusion buffer for 10 min and then the agonist AR234960 (1 μM) was added to the perfusion buffer. Coronary flow was recorded for another 10 min Changes in coronary flow induced by AR234960 were calculated as percentage of the coronary flow at 10 min following AR234960 treatment, relative to the coronary flow measured immediately prior to addition of AR234960. This protocol allowed for measurement of agonist mediated vasoconstrictor activity, and accounted for changes in baseline coronary flow due to inverse agonist treatment alone.
To determine whether Mas agonist-induced changes in coronary flow were endothelium-dependent, the responses in Langendorff perfused hearts were measured after chemical removal of endothelium with sodium deoxycholate. After a 20-min equilibration period, sodium deoxycholate was added to the perfusion buffer at 0.2 mg/mL for 3 min and then washed out for 10 min Mas compounds were added and coronary flow was recorded for 10 min Adenosine (1 μM), a coronary vasodilator that targets the endothelium, was used as a control to verify effective removal of endothelium.

LPS induced TNFα = test: LPS model for sepsis induction, serum TNFα ELISA in mice; assay type: in vivo, mouse
Experimental: Mice were treated intravenously with either 20% DMSO (vehicle), 1, 3 or 10 mg/kg Compound 170 in 20% DMSO. Alternatively animals were treated with 1 mg/kg IB-MECA in 0.1% DMSO as a positive control (n=6 per group). 1 hour after drug treatment, animals received 500 μg of LPS intraperitoneally Animals were bled 75 minutes after LPS treatment and the blood was spun down for serum. An ELISA for mouse TNFα (Invitrogen) was performed on 1:50 diluted samples the following day.

Male Sprague Dawley rats = test: Rat model of transient cerebral ischemia/stroke; assay type: in vivo; details: 3 mg/kg bolus i.v. 1 min prior to MCA occlusion or at the onset of reperfusion
Experimental: Rats were anesthetized with pentobarbital (70 mg/kg). Normal body temperature was maintained by placing the animals on heating pads. A midline neck incision was made and soft tissues were pulled apart, and the external carotid artery (ECA), and internal carotid artery (ICA) were exposed. […] An incision was made around the left hind leg area and exposing the femoral vein. A 30-mm length of 3-0 monofilament nylon suture coated with 0.1% poly-lysine was inserted into the right ICA lumen through a small incision at about 4-mm proximal to the carotid bifurcation. The filament was advanced 18-22 mm from the start of the carotid bifurcation to block the origin of the right middle cerebral artery (MCA) for the ischemia time designed. Reperfusion was obtained by pulling out the occluding filament at the end of the MCA. After occlusion the tissues around the neck were closed with 4-0 silk suture (Ethicon, 1677G). The skin around the neck was closed with metal clips and the cutting area was treated with iodine. At the end of the reperfusion period (e.g. 24 h) the rats were anesthetized with Nembutal (70 mg/kg) and the brains were removed. […] Whole area (WA) and infarct area (IA) were measured for each coronal section. Brain damage was assessed by IA/(IA+WA). […]

Q: How did the “effects in control HEK293 cells” value (control HEK293 cells) turn out when `COc1cc([N+](=O)[O-])ccc1S(=O)(=O)N1CC(CN2CCN(c3ccccn3)CC2)C(c2cccc(F)c2)C1` (stereo not drawn) [AR234960] was run?
A: There were detected effects

Q: And the “coronary flow in isolated perfused rat hearts” value ([1]; AR244555 5 μM, 10 min)?
A: decrease in coronary flow; also recorded: significantly decreased

Q: And the “compound-mediated change in coronary flow in endothelium denuded hearts” value ([1]; after sodium deoxycholate, adenosine 1 μM)?
A: preserved

Q: For `NC(=O)[C@H](CO)NCc1ccc(C(=O)Nc2ccc(Cl)cc2N2CCN(CCC(F)(F)F)CC2)c(F)c1F` [Compound 170, (S)-4-((1-Amino-3-hydroxy-1-oxopropan-2-ylamino)methyl)-N-(4-chloro-2-(4-(3,3,3-trifluoropropyl)piperazin-1-yl)phenyl)-2,3-difluorobenzamide], which “Suppression of TNFα induction compared with positive control” value (LPS induced TNFα; 10 mg/kg i.v., IB-MECA 1 mg/kg) is on record?
A: not statistically different from the positive control IB-MECA

Q: What about the “Suppression of TNFα induction” value (LPS induced TNFα; 1, 3 or 10 mg/kg i.v. 1 hour before 500 μg LPS i.p., serum 75 minutes after LPS) of the same compound?
A: significant to control treated animals at the 10 and 3 mg/kg dose; also recorded: suppression of TNFα induction

Q: And the “brain damage associated with transient ischemic injury” value (Male Sprague Dawley rats)?
A: reduced brain damage

Reference: patent US20140309192A1, “MODULATORS OF THE G PROTEIN-COUPLED MAS RECEPTOR AND THE TREATMENT OF DISORDERS RELATED THERETO” (ARENA PHARMACEUTICALS, INC., priority 2011, published 2014)
